Assay results reported in ChEMBL document CHEMBL1151995, “Evaluation of tea polyphenols as anti-HIV agents” (Bioorg Med Chem Lett, 1996).
In brackets after ≈: the same amount, converted by molar mass.

Experiments:
[1] = tested on: Human immunodeficiency virus 1; test: Inhibition of HIV-1 replication in H9 (human lymphoma) cells; No suppression.; assay type: functional, organism-based
H9 = test: Inhibition of uninfected H9 lymphocytic cell growth; assay type: functional, cell-based; settings: Homo sapiens
[2] = tested on: Human immunodeficiency virus 1; test: Inhibition of HIV-1 replication in H9 (human lymphoma) cells.; assay type: functional, organism-based; settings: Human immunodeficiency virus 1, H9
[3] = Therapeutic index - IC50/EC50.; settings: read-out: Therapeutic index

**Q.** Which EC50 [1] does the source give for `COc1cc(C(=O)O[C@@H]2Cc3c(O)cc(O)cc3O[C@@H]2c2ccc(O)c(O)c2)cc(O)c1O` here?
**A.** No effect

**Q.** What about the IC50 (H9) of the same compound?
**A.** 50 µg/mL (≈ 110 µM)

**Q.** Which EC50 [2] does the source give for `O=C(O[C@@H]1[C@@H](c2c(O)cc3c(c2O)C[C@@H](OC(=O)c2cc(O)c(O)c(O)c2)[C@@H](c2cc(O)c(O)c(O)c2)O3)c2c(O)cc(O)cc2O[C@@H]1c1cc(O)c(O)c(O)c1)c1cc(O)c(O)c(O)c1` here?
**A.** 15 µg/mL (≈ 16.4 µM)

**Q.** And the selectivity ratio [3]?
**A.** 2

**Q.** What about the IC50 (H9) of the same compound?
**A.** 30 µg/mL (≈ 32.8 µM)

**Q.** Which EC50 [1] does the source give for `COc1c(O)cc(C(=O)O[C@@H]2Cc3c(O)cc(O)cc3O[C@@H]2c2ccc(O)c(O)c2)cc1O` here?
**A.** No effect

**Q.** What about the IC50 (H9) of the same compound?
**A.** 50 µg/mL (≈ 110 µM)

**Q.** What does the source list for `O=C(Oc1c(O)cc([C@H]2Oc3cc(O)cc(O)c3C[C@H]2OC(=O)c2cc(O)c(O)c(O)c2)cc1O)c1cc(O)c(O)c(O)c1`?
**A.** EC50 [2]: 6.5 µg/mL (≈ 10.6 µM); selectivity ratio [3]: 6.2; IC50 (H9): 40 µg/mL (≈ 65.5 µM)

**Q.** For `O=C(O[C@@H]1Cc2c(O)cc(O)cc2O[C@@H]1c1cc(O)c(O)cc1-c1c([C@H]2Oc3cc(O)cc(O)c3C[C@H]2OC(=O)c2cc(O)c(O)c(O)c2)cc(O)c(O)c1O)c1cc(O)c(O)c(O)c1`, which EC50 [1] is on record?
**A.** No effect

**Q.** What about the IC50 (H9) of the same compound?
**A.** 50 µg/mL (≈ 55.6 µM)

**Q.** What does the source list for `O=C(O[C@@H]1Cc2c(O)cc(O)cc2O[C@@H]1c1ccc(O)cc1)c1cc(O)c(O)c(O)c1`?
**A.** EC50 [1]: Not Active; IC50 (H9): 50 µg/mL (≈ 117 µM)

**Q.** What does the source list for `O=C(O[C@@H]1Cc2c(O)cc(O)cc2O[C@@H]1c1cc(O)c(O)c2c1C1C([C@H]3Oc4cc(O)cc(O)c4C[C@H]3O)=CC(=O)C1(O)O2)c1cc(O)c(O)c(O)c1` (stereo partly drawn)?
**A.** EC50 [2]: 25 µg/mL (≈ 34.1 µM); selectivity ratio [3]: 1.9; IC50 (H9): 48 µg/mL (≈ 65.5 µM)

**Q.** With `Oc1cc(O)c2c(c1)O[C@H](c1cc(O)c(O)c(O)c1)[C@H](O)[C@H]2c1c(O)cc(O)c2c1O[C@H](c1cc(O)c(O)c(O)c1)[C@H](O)C2` as the compound, how does the EC50 [2] read?
**A.** 15 µg/mL (≈ 24.6 µM)

**Q.** What about the selectivity ratio [3] of the same compound?
**A.** 1.2

**Q.** And the IC50 (H9)?
**A.** 18 µg/mL (≈ 29.5 µM)

**Q.** Which results are given for `O=C(O[C@@H]1Cc2c(O)cc(O)c([C@H]3c4c(O)cc(O)cc4O[C@H](c4cc(O)c(O)c(O)c4)[C@@H]3O)c2O[C@@H]1c1cc(O)c(O)c(O)c1)c1cc(O)c(O)c(O)c1`?
**A.** EC50 [2]: 15 µg/mL (≈ 19.7 µM); selectivity ratio [3]: 1.9; IC50 (H9): 28 µg/mL (≈ 36.7 µM)

**Q.** Which EC50 [2] does the source give for `Oc1cc(O)c2c(c1)O[C@H](c1cc(O)c(O)c(O)c1-c1c([C@H]3Oc4cc(O)cc(O)c4C[C@H]3O)cc(O)c(O)c1O)[C@H](O)C2` here?
**A.** 6 µg/mL (≈ 9.83 µM)

**Q.** What about the selectivity ratio [3] of the same compound?
**A.** 1.6

**Q.** And the IC50 (H9)?
**A.** 9.5 µg/mL (≈ 15.6 µM)

**Q.** For `O=C(/C=C/c1ccc(O)cc1)O[C@@H]1Cc2c(O)cc(O)cc2O[C@@H]1c1cc(O)c(O)c(O)c1`, which EC50 [2] is on record?
**A.** 8 µg/mL (≈ 17.7 µM)

**Q.** And the selectivity ratio [3]?
**A.** 4.4

**Q.** What about the IC50 (H9) of the same compound?
**A.** 35 µg/mL (≈ 77.4 µM)

**Q.** What does the source list for `O=C(O[C@H](Cc1c(O)cc(O)cc1O)[C@H](c1cc(O)c(O)c(O)c1)c1c(O)cc(O)c2c1O[C@H](c1cc(O)c(O)c(O)c1)[C@H](OC(=O)c1cc(O)c(O)c(O)c1)C2)c1cc(O)c(O)c(O)c1`?
**A.** EC50 [1]: No effect; IC50 (H9): 9 µg/mL (≈ 9.82 µM)

**Q.** For `O=C(O[C@@H]1Cc2c(O)cc(O)c([C@@H]3c4c(O)cc(O)cc4O[C@H](c4cc(O)c(O)c(O)c4)[C@H]3O)c2O[C@@H]1c1cc(O)c(O)c(O)c1)c1cc(O)c(O)c(O)c1`, which EC50 [1] is on record?
**A.** No effect

**Q.** And the IC50 (H9)?
**A.** 9 µg/mL (≈ 11.8 µM)

**Q.** Which EC50 [2] does the source give for `Oc1cc(O)c2c(c1)O[C@H](c1cc(O)c(O)c(O)c1)[C@@H](O)[C@@H]2c1c(O)cc(O)c2c1O[C@H](c1cc(O)c(O)c(O)c1)[C@H](O)C2` here?
**A.** 12 µg/mL (≈ 19.7 µM)

**Q.** What about the selectivity ratio [3] of the same compound?
**A.** 1.5

**Q.** What about the IC50 (H9) of the same compound?
**A.** 18 µg/mL (≈ 29.5 µM)

**Q.** What does the source list for `O=C(O[C@@H]1Cc2c(O)cc(O)cc2O[C@@H]1c1cc(O)c(=O)c2c(O)c(O)c(O)cc2c1)c1cc(O)c(O)c(O)c1`?
**A.** EC50 [2]: 5.5 µg/mL (≈ 9.96 µM); selectivity ratio [3]: 4.5; IC50 (H9): 25 µg/mL (≈ 45.3 µM)

**Q.** With `O=C(O[C@H](Cc1c(O)cc(O)cc1O)[C@@H](c1cc(O)c(O)c(O)c1)c1c(O)cc(O)c2c1O[C@H](c1cc(O)c(O)c(O)c1)[C@H](OC(=O)c1cc(O)c(O)c(O)c1)C2)c1cc(O)c(O)c(O)c1` as the compound, how does the EC50 [1] read?
**A.** No effect

**Q.** What about the IC50 (H9) of the same compound?
**A.** 8 µg/mL (≈ 8.73 µM)

**Q.** Which EC50 [1] does the source give for `O=C(O[C@H]1Cc2c(O)cc3c(c2O[C@H]1c1cc(O)c(O)c(O)c1)[C@H]1c2c(O)cc(O)cc2O[C@@](c2cc(O)c(O)c(O)c2)(O3)[C@@H]1O)c1cc(O)c(O)c(O)c1` here?
**A.** No effect

**Q.** What about the IC50 (H9) of the same compound?
**A.** 40 µg/mL (≈ 52.6 µM)

**Q.** Which EC50 [1] does the source give for `O=C(O[C@@H]1Cc2c(O)cc(O)c(Cc3c(O)cc(O)c4c3O[C@H](c3cc(O)c(O)c(O)c3)[C@H](OC(=O)c3cc(O)c(O)c(O)c3)C4)c2O[C@@H]1c1cc(O)c(O)c(O)c1)c1cc(O)c(O)c(O)c1` here?
**A.** No effect

**Q.** What about the IC50 (H9) of the same compound?
**A.** 45 µg/mL (≈ 48.5 µM)

**Q.** For `O=C(Oc1cc([C@H]2Oc3cc(O)cc(O)c3C[C@H]2OC(=O)c2cc(O)c(O)c(O)c2)cc(O)c1O)c1cc(O)c(O)c(O)c1`, which EC50 [2] is on record?
**A.** 6.5 µg/mL (≈ 10.6 µM)

**Q.** What about the selectivity ratio [3] of the same compound?
**A.** 6.2

**Q.** What about the IC50 (H9) of the same compound?
**A.** 40 µg/mL (≈ 65.5 µM)
